The source of these data is patent publication US9611249B2, “1H-indazole-3-carboxamide compounds as glycogen synthase kinase 3 beta inhibitors” (AZIENDE CHIMICHE RIUNITE ANGELINI FRANCESCO A.C.R.A.F. …, priority 2012, dated 2017).

Experiment [1] addresses T1, human GSK-3β (Homo sapiens (Human), UniProt P49841). Kind of experiment: GSK-3β LanthaScreen TR-FRET Eu Kinase binding and displacement assay. The following applies: compounds 16 to 41, LanthaScreen TR-FRET binding and displacement assay, five concentrations 100 μM to 10 nM. On the procedure: In a second assay, the same compounds were assayed at five concentrations ranging from 100 μM to 10 nM with ten-fold dilutions in duplicate. Compounds 1 to 15 were tested using the same first assay, compounds 16 to 41 were tested in another assay based on the binding and displacement of AlexaFluor® 647 labeled, ATP-competitive Kinase inhibitor scaffold using LanthaScreen™ TR-FRET technology Eu Kinase assay packet according to manufacturer's instruction (Life Technologies, Italy).
(§1) The IC50 values (concentration causing a half maximal inhibition of control specific activity), reported in table 4, were determined by non-linear regression analysis of the inhibition curves generated with mean replicate values using Hill equation curve fitting.

Experiment [2] has as its target T1, human GSK-3β. In words: Activity on human GSK-3β, LANCE substrate phosphorylation assay. Format: biochemical. The following applies: for IC50: compounds 1 to 15, LANCE assay, five concentrations 100 μM to 10 nM. On the procedure:
Activity on human GSK-3β was assessed using the following methods (according to Meijer et al., Chem. Biol., 2003-10:1255-1266).
In a first screening assay, compounds were tested in duplicate at a concentration of 10 μM.
Human recombinant enzyme GSK-3β was incubated for 90 minutes at 22° C. in the presence of compounds or vehicle in a reaction buffer containing ATP plus 100 nM unphosphorylated specific substrate peptide (Ulight-[…] K-amide). Substrate phosphorylation was measured by LANCE technology (PerkinElmer, Conn., USA).
In a second assay, the same compounds were assayed at five concentrations ranging from 100 μM to 10 nM with ten-fold dilutions in duplicate.
as §1
(In general: Time-resolved FRET reads energy transfer from a long-lived donor to a nearby acceptor.)

One may read the IC50 as the concentration that gives 50% inhibition. A low value points to inhibition by little substance. Usually inhibition stands for how much of the control response was suppressed.

Structures can show the parent of a compound that is named as a salt.

T1 sequence (P49841 whole entry): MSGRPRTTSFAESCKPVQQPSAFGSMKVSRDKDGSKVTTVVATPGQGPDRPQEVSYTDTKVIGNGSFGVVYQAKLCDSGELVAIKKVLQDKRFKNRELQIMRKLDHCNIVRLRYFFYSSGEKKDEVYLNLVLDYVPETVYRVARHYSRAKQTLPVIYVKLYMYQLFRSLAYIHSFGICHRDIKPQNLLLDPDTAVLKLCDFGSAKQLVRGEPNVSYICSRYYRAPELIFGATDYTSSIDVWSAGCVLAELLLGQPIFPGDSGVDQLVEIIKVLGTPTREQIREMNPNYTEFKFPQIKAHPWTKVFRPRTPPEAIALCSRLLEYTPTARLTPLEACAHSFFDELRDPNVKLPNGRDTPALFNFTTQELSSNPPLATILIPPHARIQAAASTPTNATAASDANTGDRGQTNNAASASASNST

As for `COc1ccc2[nH]nc(C(=O)NCC3CCN(CCCNC(=O)c4ccccc4)CC3)c2c1` [Compound 36, 5-methoxy-N-[(1-{3-[(phenylcarbonyl)amino]propyl}piperidin-4-yl)methyl]-1H-indazole-3-carboxamide], the IC50 on human GSK-3β [1] stood at 3420 nM. On to `COCCN1CCC(CNC(=O)c2n[nH]c3ccc(-c4ccc(C)nc4)cc23)CC1` [Compound 7, N-{[1-(2-methoxyethyl)piperidin-4-yl]methyl}-5-(6-methylpyridin-3-yl)-1H-indazole-3-carboxamide], for which the IC50 on human GSK-3β [2] was found to be 60 nM. At human GSK-3β [1], `C/C=C/C(=O)NCCCN1CCC(CNC(=O)c2n[nH]c3ccc(OC)cc23)CC1` [Compound 38, N-[(1-{3-[(2E)-but-2-enoylamino]propyl}piperidin-4-yl)methyl]-5-methoxy-1H-indazole-3-carboxamide] showed a concentration for half-maximal inhibition (IC50) of 780 nM. Same read-out and setting: next, `O=C(NCC1CCNCC1)c1n[nH]c2ccc(Br)cc12` [Compound 25b, 5-Bromo-N-(piperidin-4-ylmethyl)-1H-indazole-3-carbox-amide hydrochloride]: 530 nM; `CCCCCc1ccc2[nH]nc(C(=O)NCC3CCN(CC(=O)O)CC3)c2c1` [Compound 35, [4-({[(5-pentyl-1H-indazol-3-yl)carbonyl]amino}methyl)piperidin-1-yl] acetic acid]: 2040 nM. In turn, `COCCN1CCC(CNC(=O)c2n[nH]c3ccc(-c4ccc(OC)cc4)cc23)CC1` [Compound 12, N-{[1-(2-methoxyethyl)piperidin-4-yl]methyl}-5-(4-methoxyphenyl)-1H-indazole-3-carboxamide] gave an IC50 on human GSK-3β [2] of 560 nM.

`COc1cncc(-c2ccc3[nH]nc(C(=O)NCC4CCN(CC(=O)O)CC4)c3c2)c1` [Compound 30, {4-[({[5-(5-methoxypyridin-3-yl)-1H-indazol-3-yl]carbonyl}amino)methyl]piperidin-1-yl}acetic acid] gave an IC50 at human GSK-3β [1] of 20 nM. `O=C(O)CN1CCC(CNC(=O)c2n[nH]c3ccc(-c4cncnc4)cc23)CC1` [Compound 25, {4-[({[5-(Pyrimidin-5-yl)-1H-indazol-3-yl]carbonyl}amino)methyl]piperidin-1-yl}acetic acid hydrate] displayed an IC50 on human GSK-3β [1] of 220 nM. As for `O=C(O)CN1CCC(CNC(=O)c2n[nH]c3cc(O)c(Br)cc23)CC1` [Compound 41, [4-({[(5-bromo-6-hydroxy-1H-indazol-3-yl)carbonyl]amino}methyl)piperidin-1-yl] acetic acid], on human GSK-3β [2] (10 μM, in duplicate, first screening assay), at 10 µM the inhibition was 71%.

`COCCN1CCC(CNC(=O)c2n[nH]c3ccc(-c4cnccc4OC)cc23)CC1` [Compound 5, N-{[1-(2-methoxyethyl)piperidin-4-yl]methyl}-5-(4-methoxypyridin-3-yl)-1H-indazole-3-carboxamide] showed an IC50 against human GSK-3β [2] of 50 nM. Still for that read-out and setting: next, `COCCN1CCC(CNC(=O)c2n[nH]c3ccc(-c4cccnc4)cc23)CC1` [Compound 4, N-{[1-(2-methoxyethyl)piperidin-4-yl]methyl}-5-(pyridin-3-yl)-1H-indazole-3-carboxamide]: 30 nM.

As for `CCCC(=O)NCCCN1CCC(CNC(=O)c2n[nH]c3ccc(OC)cc23)CC1` [Compound 37, N-({1-[3-(butanoylamino)propyl]piperidin-4-yl}methyl)-5-methoxy-1H-indazole-3-carboxamide], the IC50 on human GSK-3β [1] is 970 nM. Same read-out and setting: next, `COCCN1CCC(CNC(=O)c2n[nH]c3ccc(-c4ccccc4C)cc23)CC1` [Compound 16, N-{[1-(2-methoxyethyl)piperidin-4-yl]methyl}-5-(2-methylphenyl)-1H-indazole-3-carboxamide]: 580 nM; `O=C(O)CN1CCC(CNC(=O)c2n[nH]c3ccc(C4=CCOCC4)cc23)CC1` [Compound 33, {4-[({[5-(3,6-dihydro-2H-pyran-4-yl)-1H-indazol-3-yl]carbonyl}amino)methyl]piperidin-1-yl}acetic acid]: 1040 nM; `Cc1noc(C)c1-c1ccc2[nH]nc(C(=O)NCC3CCN(CC(=O)O)CC3)c2c1` [Compound 26, {4-[({[5-(3,5-Dimethylisoxazol-4-yl)-1H-indazol-3-yl]carbonyl}amino)methyl]piperidin-1-yl}acetic acid hydrate]: 910 nM. The same measure, in the same setting: the same measure for `CCC(=O)NCCCN1CCC(CNC(=O)c2n[nH]c3ccc(OC)cc23)CC1` [Compound 39, 5-methoxy-N-({1-[3-(propanoylamino)propyl]piperidin-4-yl}methyl)-1H-indazole-3-carboxamide]: 950 nM; for `CC(C)c1ccc2[nH]nc(C(=O)NCC3CCN(CC(=O)O)CC3)c2c1` [Compound 32, {4-[({[5-(propan-2-yl)-1H-indazol-3-yl]carbonyl}amino)methyl]piperidin-1-yl} acetic acid]: 3910 nM. `COCCN1CCC(CNC(=O)c2n[nH]c3ccc(-c4cncc(OC)c4)cc23)CC1` [Compound 10, N-{[1-(2-methoxyethyl)piperidin-4-yl]methyl}-5-(5-methoxypyridin-3-yl)-1H-indazole-3-carboxamide]: the IC50 against human GSK-3β [2] turned out to be 30 nM.

As to `COCCN1CCC(CNC(=O)c2n[nH]c3ccc(-c4cccnc4OC)cc23)CC1` [Compound 14, N-{[1-(2-methoxyethyl)piperidin-4-yl]methyl}-5-(2-methoxypyridin-3-yl)-1H-indazole-3-carboxamide], the IC50 on human GSK-3β [2] amounted to 1400 nM. Take `COCCN1CCC(CNC(=O)c2n[nH]c3ccc(-c4ccc(C)cc4)cc23)CC1` [Compound 13, N-{[1-(2-methoxyethyl)piperidin-4-yl]methyl}-5-(4-methylphenyl)-1H-indazole-3-carboxamide]: half-maximal inhibition against human GSK-3β [2] (IC50) required 560 nM.

On human GSK-3β [2], `COCCN1CCC(CNC(=O)c2n[nH]c3ccc(-c4ccccc4)cc23)CC1` [Compound 9, N-{[1-(2-methoxyethyl)pipendin-4-yl]methyl}-5-phenyl-1H-indazole-3-carboxamide] gave an IC50 of 200 nM.

`COCCN1CCC(CNC(=O)c2n[nH]c3ccc(-c4ccccc4F)cc23)CC1` [Compound 6, 5-(2-fluorophenyl)-N-{[1-(2-methoxyethyl)piperidin-4-yl]methyl}-1H-indazole-3-carboxamide] had a half-inhibitory concentration (IC50) on human GSK-3β [2] of 70 nM. In turn, `O=C(O)CN1CCC(CNC(=O)c2n[nH]c3ccc(-c4cccc(F)c4)cc23)CC1` [Compound 28, {4-[({[5-(3-fluorophenyl)-1H-indazol-3-yl]carbonyl}amino)methyl]piperidin-1-yl} acetic acid hydrate] returned an IC50 at human GSK-3β [1] of 110 nM. Same read-out and setting: next, `CCOc1cc(F)c(F)cc1-c1ccc2[nH]nc(C(=O)NCC3CCN(CCOC)CC3)c2c1` [Compound 18, 5-(2-ethoxy-4,5-difluorophenyl)-N-{[1-(2-methoxyethyl)piperidin-4-yl]methyl}-1H-indazole-3-carboxamide]: 1060 nM; `O=C(O)CN1CCC(CNC(=O)c2n[nH]c3ccc(C4CCCCC4)cc23)CC1` [Compound 34, [4-({[(5-cyclohexyl-1H-indazol-3-yl)carbonyl]amino}methyl)piperidin-1-yl] acetic acid]: 1070 nM. Same read-out and setting: next, `COc1ccc2[nH]nc(C(=O)NCC3CCN(CCCC(=O)O)CC3)c2c1` [Compound 24, 4-[4-({[(5-methoxy-1H-indazol-3-yl)carbonyl]amino}methyl)piperidin-1-yl] butanoic acid]: 1030 nM. Same read-out and setting: next, `CC#CC(=O)NCCCN1CCC(CNC(=O)c2n[nH]c3ccc(OC)cc23)CC1` [Compound 40, N-({1-[3-(but-2-ynoylamino)propyl]piperidin-4-yl}methyl)-5-methoxy-1H-indazole-3-carboxamide]: 880 nM. With `COCCN1CCC(CNC(=O)c2n[nH]c3ccc(-c4ccc(O)cc4)cc23)CC1` [Compound 11, 5-(4-hydroxyphenyl)-N-{[1-(2-methoxyethyl)piperidin-4-yl]methyl}-1H-indazole-3-carboxamide], the midpoint of inhibition against human GSK-3β [2], the IC50, lay at 890 nM. Compound `COCCN1CCC(CNC(=O)c2n[nH]c3ccc(-c4ccc(OC)nc4)cc23)CC1` [Compound 15, N-{[1-(2-methoxyethyl)piperidin-4-yl]methyl}-5-(6-methoxypyridin-3-yl)-1H-indazole-3-carboxamide] showed an IC50 at human GSK-3β [2] of 50 nM.

As for `O=C(O)CN1CCC(CNC(=O)c2n[nH]c3ccc(-c4cccc(Cl)c4Cl)cc23)CC1` [Compound 27, {4-[({[5-(2,3-dichlorophenyl)-1H-indazol-3-yl]carbonyl}amino)methyl]piperidin-1-yl}acetic acid hydrate], the IC50 on human GSK-3β [1] worked out at 100 nM.
